Results from patent US6737383B1, “Herbicidal oxadiazolidines” (priority 1999, dated 2004).

Columns and labels:
bamyardgrass = assay: Test B flood test barnyardgrass; assay type: in vivo, Echinochloa crus-galli
In short: (§1)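 Flood test on plants grown to the 2-leaf stage; treated plants kept in greenhouse twelve to sixteen days, then visually rated against controls on a 0 (no effect) to 10 (complete control) scale.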

giant foxtail = assay: Test B pre/postemergence giant foxtail; assay type: in vivo, Setaria faberii
In short: (§2)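 Herbicidal effect was estimated by eye on a ten-point control scale after plants spent twelve to sixteen days in a greenhouse following soil or foliar treatment. Foliar sprays targeted plants at one to four leaves; all doses were formulated in a non-phytotoxic solvent with surfactant.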

crabgrass = assay: Test B pre/postemergence crabgrass; assay type: in vivo, Digitaria sanguinalis
In short: as §2

smallflower flatsedge = assay: Test B flood test smallflower flatsedge; assay type: in vivo, Cyperus difformis
In short: as §1

rice = assay: Test B flood test rice; assay type: in vivo, Oryza sativa
In short: as §1

bedstraw = assay: Test B pre/postemergence bedstraw; assay type: in vivo, Galium aparine
In short: as §2

pigweed = assay: Test B pre/postemergence pigweed; assay type: in vivo, Amaranthus retroflexus
In short: as §2

purple nutsedge = assay: Test B pre/postemergence purple nutsedge; assay type: in vivo, Cyperus rotundus
In short: as §2

wild oat = assay: Test B pre/postemergence wild oat; assay type: in vivo, Avena fatua
In short: as §2

morningglory = assay: Test B pre/postemergence morningglory; assay type: in vivo, Ipomoea hederacea
In short: as §2

blackgrass = assay: Test B pre/postemergence blackgrass; assay type: in vivo, Alopecurus myosuroides
In short: as §2

soybean = assay: Test B pre/postemergence soybean; assay type: in vivo, Glycine max
In short: as §2

surinam grass = assay: Test B pre/postemergence surinam grass; assay type: in vivo, Brachiaria decumbens
In short: as §2

velvetleaf = assay: Test B pre/postemergence velvetleaf; assay type: in vivo, Abutilon theophrasti
In short: as §2

cocklebur = assay: Test B pre/postemergence cocklebur; assay type: in vivo, Xanthium strumarium
In short: as §2

wheat = assay: Test B pre/postemergence wheat; assay type: in vivo, Triticum aestivum
In short: as §2

[1] = Rate 62 g/ha, flood test species, Pre-emergence, visual evaluation after twelve to sixteen days
[2] = Rate 125 g/ha, under heading Pre-emergence, flood test species, visual evaluation after twelve to sixteen days
[3] = Rate 250 g/ha, Pre-emergence (flood test species), scale 0 to 10, 0 is no effect, 10 is complete control
[4] = Rate 500 g/ha, Pre-emergence section of Table B, 0 to 10 scale (0 no effect, 10 complete control)
[5] = Postemergence, Rate 62 g/ha, scale 0 to 10, 0 is no effect, 10 is complete control
[6] = Postemergence, Rate 125 g/ha, scale of 0 to 10 where 0 is no effect and 10 is complete control
[7] = Postemergence, Rate 250 g/ha, scale of 0 to 10, 0 is no effect, 10 is complete control
[8] = Preemergence, Rate 62 g/ha, scale of 0 to 10 where 0 is no effect and 10 is complete control
[9] = Preemergence, Rate 125 g/ha, scale of 0 to 10 where 0 is no effect and 10 is complete control
[10] = Preemergence, Rate 500 g/ha, scale of 0 to 10 where 0 is no effect and 10 is complete control
[11] = Rate 500 g/ha, Postemergence, scale 0 to 10, 0 is no effect, 10 is complete control
[12] = Preemergence, Rate 250 g/ha, scale 0 to 10 (0 no effect, 10 complete control)

Which “Plant response rating, Barnyardgrass (0 to 10 scale, 0 is no effect, 10 is complete control)” value (bamyardgrass; [1]) does the source give for `CC(C)N(C(=O)n1oc(=O)n(CCCC#N)c1=O)c1ccc(F)cc1F` [Compound 675] here?
The value was 0.

What about the “Barnyardgrass plant response rating (0 to 10 scale, 0 is no effect, 10 is complete control)” value (bamyardgrass; [2]) of the same compound?
The value was 0.

What about the “Barnyardgrass plant response rating” value (bamyardgrass; [3]) of the same compound?
The value was 0.

And the “Barnyardgrass plant response rating” value (bamyardgrass; [4])?
The value was 0.

And the “Plant response rating, Giant foxtail” value (giant foxtail; [5])?
The value was 8.

What about the “Giant foxtail plant response rating” value (giant foxtail; [6]) of the same compound?
Its value is 9.

And the “Giant foxtail plant response rating” value (giant foxtail; [7])?
The value was 9.

And the “Giant foxtail plant response rating” value (giant foxtail; [8])?
The value was 9.

And the “Plant response rating, Giant foxtail” value (giant foxtail; [9])?
Its value is 10.

And the “Plant response rating, Giant foxtail” value (giant foxtail; [10])?
Its value is 10.

What about the “Giant foxtail plant response rating” value (giant foxtail; [11]) of the same compound?
Its value is 9.

What about the “Plant response rating, Crabgrass” value (crabgrass; [5]) of the same compound?
The value was 6.

What about the “Crabgrass plant response rating” value (crabgrass; [6]) of the same compound?
The value was 8.

What about the “Crabgrass plant response rating” value (crabgrass; [7]) of the same compound?
Its value is 9.

What about the “Crabgrass plant response rating” value (crabgrass; [8]) of the same compound?
Its value is 6.

And the “Plant response rating, Crabgrass” value (crabgrass; [9])?
The value was 7.

What about the “Plant response rating, Crabgrass” value (crabgrass; [12]) of the same compound?
The value was 9.

And the “Plant response rating, Crabgrass” value (crabgrass; [10])?
Its value is 10.

And the “Crabgrass plant response rating” value (crabgrass; [11])?
The value was 9.

What about the “Plant response rating, S. Flatsedge (0 to 10 scale, 0 is no effect, 10 is complete control)” value (smallflower flatsedge; [1]) of the same compound?
Its value is 0.

And the “S. Flatsedge plant response rating (0 to 10 scale, 0 is no effect, 10 is complete control)” value (smallflower flatsedge; [2])?
The value was 0.

And the “S. Flatsedge plant response rating” value (smallflower flatsedge; [3])?
The value was 0.

And the “S. Flatsedge plant response rating” value (smallflower flatsedge; [4])?
Its value is 0.

What about the “Plant response rating, Rice (0 to 10 scale, 0 is no effect, 10 is complete control)” value (rice; [1]) of the same compound?
The value was 0.

And the “Rice plant response rating (0 to 10 scale, 0 is no effect, 10 is complete control)” value (rice; [2])?
Its value is 0.

What about the “Rice plant response rating” value (rice; [3]) of the same compound?
The value was 0.

And the “Rice plant response rating” value (rice; [4])?
The value was 0.

What about the “Plant response rating, Bedstraw” value (bedstraw; [5]) of the same compound?
Its value is 0.

And the “Bedstraw plant response rating” value (bedstraw; [6])?
The value was 1.

And the “Bedstraw plant response rating” value (bedstraw; [7])?
Its value is 6.

And the “Bedstraw plant response rating” value (bedstraw; [8])?
The value was 0.

And the “Plant response rating, Bedstraw” value (bedstraw; [9])?
The value was 2.

And the “Plant response rating, Bedstraw” value (bedstraw; [12])?
The value was 10.

What about the “Plant response rating, Bedstraw” value (bedstraw; [10]) of the same compound?
Its value is 10.

What about the “Plant response rating, Redroot pigweed” value (pigweed; [5]) of the same compound?
Its value is 2.

And the “Redroot pigweed plant response rating” value (pigweed; [6])?
Its value is 2.

What about the “Redroot pigweed plant response rating” value (pigweed; [8]) of the same compound?
Its value is 5.

What about the “Plant response rating, Redroot pigweed” value (pigweed; [9]) of the same compound?
The value was 9.

And the “Plant response rating, Redroot pigweed” value (pigweed; [10])?
The value was 10.

What about the “Redroot pigweed plant response rating” value (pigweed; [11]) of the same compound?
The value was 8.

What about the “Plant response rating, Nutsedge” value (purple nutsedge; [5]) of the same compound?
Its value is 0.

What about the “Nutsedge plant response rating” value (purple nutsedge; [6]) of the same compound?
The value was 0.

And the “Nutsedge plant response rating” value (purple nutsedge; [8])?
Its value is 0.

What about the “Plant response rating, Nutsedge” value (purple nutsedge; [9]) of the same compound?
The value was 0.

What about the “Plant response rating, Nutsedge” value (purple nutsedge; [10]) of the same compound?
The value was 7.

And the “Nutsedge plant response rating” value (purple nutsedge; [11])?
The value was 8.

What about the “Plant response rating, Wild oats” value (wild oat; [5]) of the same compound?
The value was 0.

What about the “Wild oats plant response rating” value (wild oat; [6]) of the same compound?
Its value is 0.

What about the “Wild oats plant response rating” value (wild oat; [8]) of the same compound?
Its value is 4.

What about the “Plant response rating, Wild oats” value (wild oat; [9]) of the same compound?
The value was 5.

What about the “Plant response rating, Wild oats” value (wild oat; [10]) of the same compound?
The value was 10.

And the “Wild oats plant response rating” value (wild oat; [11])?
Its value is 7.

What about the “Plant response rating, Morningglory” value (morningglory; [5]) of the same compound?
Its value is 1.

What about the “Morningglory plant response rating” value (morningglory; [6]) of the same compound?
The value was 2.

And the “Morningglory plant response rating” value (morningglory; [7])?
The value was 2.

What about the “Morningglory plant response rating” value (morningglory; [8]) of the same compound?
Its value is 0.

And the “Plant response rating, Morningglory” value (morningglory; [9])?
Its value is 0.

And the “Plant response rating, Morningglory” value (morningglory; [10])?
Its value is 6.

And the “Morningglory plant response rating” value (morningglory; [11])?
The value was 4.

What about the “Plant response rating, Blackgrass” value (blackgrass; [5]) of the same compound?
Its value is 5.

And the “Blackgrass plant response rating” value (blackgrass; [6])?
The value was 5.

And the “Blackgrass plant response rating” value (blackgrass; [7])?
The value was 7.

And the “Blackgrass plant response rating” value (blackgrass; [8])?
Its value is 5.

And the “Plant response rating, Blackgrass” value (blackgrass; [9])?
Its value is 9.

What about the “Plant response rating, Blackgrass” value (blackgrass; [12]) of the same compound?
Its value is 9.

What about the “Plant response rating, Blackgrass” value (blackgrass; [10]) of the same compound?
The value was 10.

And the “Blackgrass plant response rating” value (blackgrass; [11])?
Its value is 9.

What about the “Plant response rating, Soybean” value (soybean; [5]) of the same compound?
The value was 4.

And the “Soybean plant response rating” value (soybean; [6])?
Its value is 5.

And the “Soybean plant response rating” value (soybean; [8])?
The value was 0.

And the “Plant response rating, Soybean” value (soybean; [9])?
Its value is 0.

And the “Plant response rating, Soybean” value (soybean; [10])?
Its value is 4.

And the “Soybean plant response rating” value (soybean; [11])?
Its value is 5.

And the “Plant response rating, B. signalgrass” value (surinam grass; [5])?
The value was 1.

And the “B. signalgrass plant response rating” value (surinam grass; [6])?
The value was 4.

What about the “B. signalgrass plant response rating” value (surinam grass; [7]) of the same compound?
The value was 8.

What about the “B. signalgrass plant response rating” value (surinam grass; [8]) of the same compound?
Its value is 4.

And the “Plant response rating, B. signalgrass” value (surinam grass; [9])?
The value was 6.

And the “Plant response rating, B. signalgrass” value (surinam grass; [12])?
Its value is 8.

What about the “Plant response rating, B. signalgrass” value (surinam grass; [10]) of the same compound?
Its value is 10.

And the “B. signalgrass plant response rating” value (surinam grass; [11])?
Its value is 8.

What about the “Plant response rating, Velvetleaf” value (velvetleaf; [5]) of the same compound?
Its value is 0.

And the “Velvetleaf plant response rating” value (velvetleaf; [6])?
The value was 2.

And the “Velvetleaf plant response rating” value (velvetleaf; [8])?
Its value is 6.

What about the “Plant response rating, Velvetleaf” value (velvetleaf; [9]) of the same compound?
Its value is 7.

And the “Plant response rating, Velvetleaf” value (velvetleaf; [10])?
The value was 10.

What about the “Velvetleaf plant response rating” value (velvetleaf; [11]) of the same compound?
Its value is 8.

What about the “Plant response rating, Cocklebur” value (cocklebur; [5]) of the same compound?
Its value is 0.

And the “Cocklebur plant response rating” value (cocklebur; [6])?
Its value is 3.

And the “Cocklebur plant response rating” value (cocklebur; [7])?
The value was 3.

And the “Cocklebur plant response rating” value (cocklebur; [8])?
Its value is 0.

What about the “Plant response rating, Cocklebur” value (cocklebur; [9]) of the same compound?
Its value is 0.

And the “Plant response rating, Cocklebur” value (cocklebur; [12])?
The value was 0.

And the “Plant response rating, Cocklebur” value (cocklebur; [10])?
Its value is 0.

What about the “Cocklebur plant response rating” value (cocklebur; [11]) of the same compound?
The value was 3.

What about the “Plant response rating, Wheat” value (wheat; [5]) of the same compound?
The value was 0.

What about the “Wheat plant response rating” value (wheat; [6]) of the same compound?
The value was 3.

And the “Wheat plant response rating” value (wheat; [8])?
Its value is 0.

What about the “Plant response rating, Wheat” value (wheat; [9]) of the same compound?
The value was 2.

And the “Plant response rating, Wheat” value (wheat; [10])?
The value was 9.

What about the “Wheat plant response rating” value (wheat; [11]) of the same compound?
Its value is 7.
